Results on 6 molecules are retold here after patent US4166911A, “Pyridazinyl-ergoline compounds having neuroleptic activity” (Farmitalia Carlo Erba S.p.A., priority 1977, dated 1979).

Usually ED50 stands for the midpoint of the dose-response relation. A high value points to a need for a large dose.

The first experiment concerns aggregated mice.
Experiment: not given
Conditions: result in words, literature; cited from earlier work.
As for `CN(C)CCCN1c2ccccc2Sc2ccc(Cl)cc21` [chlorpromazine], the “reduction of amphetamine toxicity in aggregated mice” value was “clearly reduce the amphetamine toxicity in aggregated mice”.

The next experiment relates to aggregated mice. Kind of experiment: protection of aggregated mice from amphetamine toxicity (death rate after 24 hours). Conditions: Mus musculus, ip.
On to `COC12C[C@@H](CNc3ccc(Cl)nn3)CN(C)[C@@H]1Cc1cn(C)c3cccc2c13` (stereo partly drawn) [355/902, 10-Methoxy-8β-(6'-chloro-3'-pyridazinylaminomethyl)-1,6-dimethyl-ergoline], for which the median effective dose (ED50) amounted to 16.4 mg/kg.
On the same count and under the same terms, for `COc1ccc(NC[C@H]2CN(C)[C@@H]3Cc4cn(C)c5cccc(c45)C3(OC)C2)nn1` (stereo partly drawn) [/903, 10-Methoxy-8β-(6'-methoxy-3'-pyridazinylaminomethyl)-1,6-dimethylergoline] the value was 30 mg/kg.
Same read-out and setting: to `COC12C[C@@H](CNc3cccnn3)CN(C)[C@@H]1Cc1cn(C)c3cccc2c13` (stereo partly drawn) [/904, 10-Methoxy-8β-(3'-pyridazinylaminomethyl)-1,6-dimethylergoline] belongs 30 mg/kg; to `COC12C[C@@H](CSc3ccc(O)nn3)CN(C)[C@@H]1Cc1cn(C)c3cccc2c13` (stereo partly drawn) [/914, 10-Methoxy-1,6-dimethyl-8β-(6'-hydroxy-3'-pyridazinylmercaptomethyl)ergoline], 16.7 mg/kg.
Same read-out and setting: for `COC12C[C@@H](CSc3cccnn3)CN(C)[C@@H]1Cc1cn(C)c3cccc2c13` (stereo partly drawn) [/927, 10-Methoxy-1,6-dimethyl-8β-(3'-pyridazinylmercaptomethyl)ergoline] the value was 30 mg/kg.
